Experimental data from patent US20230051589A1, “COMPOUNDS AND COMPOSITIONS FOR TREATING CONDITIONS ASSOCIATED WITH NLRP ACTIVITY” (Novartis AG, priority 2018, published 2023).

Test system: IL-1β production in PMA-differentiated THP-1 cells
Assay: IL-1β production in PMA-differentiated THP-1 cells stimulated with gramicidin (hTHP-1 assay, 2% fetal bovine serum; Procedures 1-3)
Type: cell-based, human
Conditions: Homo sapiens, THP-1, hTHP-1 assay containing 2% fetal bovine serum, Table B2, class symbols; read-out: IC50
Procedure, shortened: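 PMA-primed THP-1 cells (20 ng/ml PMA, 16-18 h) in RPMI with 2% FBS were pre-incubated with compounds for 1 h, from 100 μM downward in 3-fold steps (0.37% DMSO final), then stimulated with 5 μM gramicidin for 2 h. IL-1β in the supernatant was quantified by HTRF.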

CC(C)(O)c1csc(S(N)(=O)=NC(=O)Nc2c3c(cc4c2CC4)CCC3)c1 (stereo not shown) [Example 467, 4-(2-Hydroxypropan-2-yl)-N′-((2,4,5,6-tetrahydro-1H-cyclobuta[f]inden-3-yl)carbamoyl)thiophene-2-sulfonimidamide] and CC(C)(O)c1nc(CO)c(S(N)(=O)=NC(=O)Nc2c3c(cc4c2CCC4)CCC3)s1 (stereo not shown) [Example 475, N′-((1,2,3,5,6,7-hexahydro-s-indacen-4-yl)carbamoyl)-4-(hydroxymethyl)-2-(2-hydroxypropan-2-yl)thiazole-5-sulfonimidamide] fall in the same range of IC50: 40 to 200 nM for the first, 40 to 200 nM for the second.

First: Cc1c(C2CC2)cc2c(c1NC(=O)N=S(N)(=O)c1cnc(C(C)(C)O)s1)CCC2 (stereo not shown) [Example 468]
Second: CC(C)c1cc2c(cc1NC(=O)N=S(N)(=O)c1cnc(C(C)(C)O)s1)CCC2 (stereo not shown) [Example 494, 2-(2-Hydroxypropan-2-yl)-N′-((6-isopropyl-2,3-dihydro-1H-inden-5-yl)earbamoyl)thiazole-5-sulfonimidamide]
The IC50 of the first is lower: 40 to 200 nM for the first, 200 to 1000 nM for the second. The first is the more potent here.

First: CC(C)(O)c1ccc(S(N)(=O)=NC(=O)Nc2c3c(cc4c2C(=O)CC4)CCC3)cn1 (stereo not shown) [Example 469, 6-(2-Hydroxypropan-2-yl)-N′-((3-oxo-1,2,3,5,6,7-hexahydro-s-indacen-4-yl)carbamoyl)pyridine-3-sulfonimidamide]
Second: CC(C)(O)c1ccc(S(N)(=O)=NC(=O)Nc2c3c(c(C#N)c4c2CCC4)CCC3)cn1 (stereo not shown) [Example 470, N′-((8-cyano-1,2,3,5,6,7-hexahydro-s-indacen-4-yl)carbamoyl)-6-(2-hydroxypropan-2-yl)pyridine-3-sulfonimidamide]
The IC50 of the first is higher: 1000 to 5000 nM for the first, 200 to 1000 nM for the second. The second is the more potent here.

CN(C)C(c1ccc(S(N)(=O)=NC(=O)Nc2c3c(cc4c2CCC4)CCC3)cc1)C(F)F (stereo not shown) [Example 474, 4-(1-(Dimethylamino)-2,2-difluoroethyl)-N-((1,2,3,5,6,7-hexahydro-s-indacen-4-yl)carbamoyl)benzenesulfonimidamide] and CN(C)C(CF)c1ccc(S(N)(=O)=NC(=O)Nc2c3c(cc4c2CCC4)CCC3)cc1 (stereo not shown) [Example 480, 4-(1-(Dimethylamino)-2-fluoroethyl)-N′-((1,2,3,5,6,7-hexahydro-s-indacen-4-yl)carbamoyl)benzenesulfonimidamide] fall in the same range of IC50: 1000 to 5000 nM for the first, 1000 to 5000 nM for the second.

Compared with CC(C)c1cc(S(N)(=O)=NC(=O)Nc2c3c(cc4c2CCC4)CCC3)c(F)cn1 (stereo not shown) [Example 478, 5-Fluoro-N′-((1,2,3,5,6,7-hexahydro-s-indacen-4-yl)carbamoyl)-2-isopropylpyridine-4-sulfonimidamide], CN(C)Cc1cnc(S(N)(=O)=NC(=O)Nc2c3c(cc4c2CCC4)CCC3)c(F)c1 (stereo not shown) [Example 497, 5-((Dimethylamino)methyl)-3-fluoro-N′-((1,2,3,5,6,7-hexahydro-s-indacen-4-yl)carbamoyl)pyridine-2-sulfonimidamide] is higher in IC50: 200 to 1000 nM for the first, 1000 to 5000 nM for the second. The first is the more potent here.

First: CN1CCc2cc(S(N)(=O)=NC(=O)Nc3c4c(cc5c3CCC5)CCC4)sc2C1 (stereo not shown) [Example 479, N′-((1,2,3,5,6,7-hexahydro-s-indacen-4-yl)carbamoyl)-6-methyl-4,5,6,7-tetrahydrothieno[2,3-c]pyridine-2-sulfonimidamide]
Second: CNCc1cc(F)c(S(N)(=O)=NC(=O)Nc2c3c(cc4c2CCC4)CCC3)s1 (stereo not shown) [Example 481, 3-Fluoro-N′-((1,2,3,5,6,7-hexahydro-s-indacen-4-yl)carbamoyl)-5-((methylamino)methyl)thiophene-2-sulfonimidamide]
The IC50 of the first is higher: 200 to 1000 nM for the first, 40 to 200 nM for the second. The second is the more potent here.

First: CC(C)(O)c1cc(C#N)cc(S(N)(=O)=NC(=O)Nc2c3c(c(C#N)c4c2CCC4)CCC3)c1 (stereo not shown) [Example 482, 3-Cyano-N′-((8-cyano-1,2,3,5,6,7-hexahydro-s-indacen-4-yl)carbamoyl)-5-(2-hydroxypropan-2-yl)benzenesulfonimidamide]
Second: CC(C)(O)c1csc(S(N)(=O)=NC(=O)Nc2c3c(c(C#N)c4c2CCC4)CCC3)n1 (stereo not shown) [Example 499, N′-((8-Cyano-1,2,3,5,6,7-hexahydro-s-indacen-4-yl)carbamoyl)-4-(2-hydroxypropan-2-yl)thiazole-2-sulfonimidamide]
The IC50 of the first is higher: 1000 to 5000 nM for the first, 40 to 200 nM for the second.

NS(=O)(=NC(=O)Nc1c2c(cc3c1CCC3)CCC2)c1ccc(C2CCCC2)nc1 (stereo not shown) [Example 483, 6-Cyclopentyl-N′-((1,2,3,5,6,7-hexahydro-s-indacen-4-yl)carbamoyl)pyridine-3-sulfonimidamide] and NS(=O)(=NC(=O)Nc1c2c(cc3c1CCC3)CCC2)c1ccc(C(F)F)nc1 (stereo not shown) [Example 485, 6-(Difluoromethyl)-N′-((1,2,3,5,6,7-hexahydro-s-indacen-4-yl)carbamoyl)pyridine-3-sulfonimidamide] fall in the same range of IC50: 1000 to 5000 nM for the first, 1000 to 5000 nM for the second.

Compared with CN(C)C(c1ccc(S(N)(=O)=NC(=O)Nc2c3c(cc4c2CCC4)CCC3)cc1)C1CC1 (stereo not shown) [Example 484, 4-(Cyclopropyl(dimethylamino)methyl)-N′-((1,2,3,5,6,7-hexahydro-s-indacen-4-yl)carbamoyl)benzenesulfonimidamide], CN(C)C(c1ccc(S(N)(=O)=NC(=O)Nc2c3c(cc4c2CCC4)CCC3)cc1)C(F)(F)F (stereo not shown) [Example 492, 4-(1-(Dimethylamino)-2,2,2-trifluoroethyl)-N′-((1,2,3,5,6,7-hexahydro-s-indacen-4-yl)carbamoyl)benzenesulfonimidamide] is higher in IC50: 200 to 1000 nM for the first, 1000 to 5000 nM for the second. The first is the more potent here.

Compared with CNC(C)(C)c1ccc(S(N)(=O)=NC(=O)Nc2c3c(cc4c2CCC4)CCC3)cc1 (stereo not shown) [Example 486, N′-((1,2,3,5,6,7-hexahydro-s-indacen-4-yl)carbamoyl)-4-(2-(methylamino)propan-2-yl) benzenesulfonimidamide], CC(C)N(C)c1ccc(S(N)(=O)=NC(=O)Nc2c3c(cc4c2CCC4)CCC3)cc1 (stereo not shown) [Example 489, N′-((1,2,3,5,6,7-hexahydro-s-indacen-4-yl)carbamoyl)-4-(isopropyl(methyl)ammo) benzenesulfonimidamide] is higher in IC50: 1000 to 5000 nM for the first, 5000 to 30000 nM for the second.

First: CN(Cc1ccc(S(N)(=O)=NC(=O)Nc2c3c(cc4c2CCC4)CCC3)cc1)CC(F)(F)F (stereo not shown) [Example 487, N′-((1,2,3,5,6,7-hexahydro-s-indacen-4-yl)carbamoyl)-4-((methyl(2,2,2-trifluoroethyl)amino)methyl) benzenesulfonimidamide]
Second: NS(=O)(=NC(=O)Nc1c2c(cc3c1CCC3)CCC2)c1ccc(OC(F)F)cc1 (stereo not shown) [Example 493, 4-(Difluoromethoxy)-N′-((1,2,3,5,6,7-hexahydro-s-indacen-4-yl)carbamoyl) benzenesulfonimidamide]
The IC50 of the first is lower: 1000 to 5000 nM for the first, 5000 to 30000 nM for the second.

NS(=O)(=NC(=O)Nc1c2c(cc3c1CCC3)CCC2)c1ccccc1 (stereo not shown) [Example 488, N′-((1,2,3,5,6,7-hexahydro-s-indacen-4-yl)carbamoyl)benzenesulfonimidamide] and CNCc1cccc(S(N)(=O)=NC(=O)Nc2c3c(cc4c2CCC4)CCC3)c1 (stereo not shown) [Example 508, N′-((1,2,3,5,6,7-hexahydro-s-indacen-4-yl)carbamoyl)-3-((methylamino)methyl) benzenesulfonimidamide] fall in the same range of IC50: 5000 to 30000 nM for the first, 5000 to 30000 nM for the second.

Compared with CC(C)(O)c1cc(S(N)(=O)=NC(=O)Nc2c3c(c(C#N)c4c2CCC4)CCC3)nn1-c1ccccc1 (stereo not shown) [Example 490, N′-((8-cyano-1,2,3,5,6,7-hexahydro-s-indacen-4-yl)carbamoyl)-5-(2-hydroxypropan-2-yl)-1-phenyl-1H-pyrazole-3-sulfonamide], CN(C)CCN(C)Cc1cccc(S(N)(=O)=NC(=O)Nc2c3c(cc4c2CCC4)CCC3)c1 (stereo not shown) [Example 506, 3-(((2-(Dimethylamino)ethyl) (methyl)amino)methyl)-N′-((1,2,3,5,6,7-hexahydro-s-indacen-4-yl)carbamoyl)benzenesulfonimidamide] is higher in IC50: 200 to 1000 nM for the first, 5000 to 30000 nM for the second. The first is the more potent here.

First: CNCC1(c2ccc(S(N)(=O)=NC(=O)Nc3c4c(cc5c3CCC5)CCC4)c(F)c2)CC1 (stereo not shown) [Example 495, 2-Fluoro-N′-((1,2,3,5,6,7-hexahydro-s-indacen-4-yl)carbamoyl)-4-(1-((methylamino)methyl)cyclopropyl)benzenesulfonimidamide]
Second: CN(Cc1cccc(S(N)(=O)=NC(=O)Nc2c3c(cc4c2CCC4)CCC3)c1)CC1CC1 (stereo not shown) [Example 507, 3-(((Cyclopropylmethyl) (methyl)amino)methyl)-N′-((1,2,3,5,6,7-hexahydro-s-indacen-4-yl)carbamoyl)benzenesulfonimidamide]
The IC50 of the first is lower: 1000 to 5000 nM for the first, 5000 to 30000 nM for the second.

First: NS(=O)(=NC(=O)Nc1c2c(cc3c1CCC3)CCC2)c1cccc(CN2CCOCC2)c1 (stereo not shown) [Example 503, N′-((1,2,3,5,6,7-hexahydro-s-indacen-4-yl)carbamoyl)-3-(morpholinomethyl)benzenesulfonimidamide]
Second: CN1CCN(Cc2cccc(S(N)(=O)=NC(=O)Nc3c4c(cc5c3CCC5)CCC4)c2)CC1 (stereo not shown) [Example 505, N′-((1,2,3,5,6,7-hexahydro-s-indacen-4-yl)carbamoyl)-3-((4-methylpiperazin-1-yl)methyl) benzenesulfonimidamide]
The IC50 of the first is lower: 1000 to 5000 nM for the first, 5000 to 30000 nM for the second. The first is the more potent here.

Compound COCCN(C)Cc1cccc(S(N)(=O)=NC(=O)Nc2c3c(cc4c2CCC4)CCC3)c1 (stereo not shown) [Example 504] has an IC50 of 5000 to 30000 nM.

Same assay, conditions: Homo sapiens, THP-1, hTHP-1 assay containing 2% fetal bovine serum, Table B2, given as bound; read-out: IC50

For CC(C)(O)c1cnc([S@@](N)(=O)=NC(=O)Nc2c3c(cc4c2CCC4O)CCC3)s1 (stereo partly drawn) [Example 509, (S)-N′-((1-hydroxy-1,2,3,5,6,7-hexahydro-s-indacen-4-yl)carbamoyl)-5-(2-hydroxypropan-2-yl)thiazole-2-sulfonimidamide], the IC50 was > 30000 nM.

Same assay, conditions: hTHP-1 assay containing 2% fetal bovine serum, Table B2, class symbols; read-out: IC50

First: CC(C)(O)c1cc(S(N)(=O)=NC(=O)Nc2c3c(cc4c2CCC4)CCC3)sc1-c1ccccc1 (stereo not shown) [Example 477, N′-((1,2,3,5,6,7-hexahydro-s-indacen-4-yl)carbamoyl)-4-(2-hydroxypropan-2-yl)-5-phenylthiophene-2-sulfomidamide]
Second: NS(=O)(=NC(=O)Nc1c2c(cc3c1CCC3)CCC2)c1ccc(C2CCNC2)cc1F (stereo not shown) [Example 500, 2-Fluoro-N′-((1,2,3,5,6,7-hexahydro-s-indacen-4-yl)carbamoyl)-4-(pyrrolidin-3-yl)benzenesulfonimidamide]
The IC50 of the first is lower: 200 to 1000 nM for the first, 5000 to 30000 nM for the second.
